Here are results for 30 compounds from PMC9032825, “Docking, Binding Free Energy Calculations and In Vitro Characterization of Pyrazine Linked 2-Aminobenzamides as Novel Class I Histone Deacetylase (HDAC) Inhibitors” (Molecules, 2022).

Where two headings read alike, the source gives them in different places.

Test [1] deals with T1, human HDAC1 (Homo sapiens, UniProt Q13547). Briefly: HDAC1 inhibition, fluorogenic peptide substrate Ac-RHKK(Acetyl)-AMC. It counts as biochemical. As to conditions: test set. Here is the method: (§1) HDAC1, 2, 3 inhibitory activity for the novel inhibitors was performed as previously reported. To keep the test number small, we applied a two-step screening.
(§2) A fluorogenic peptide derived from p53 (Ac-RHKK(Acetyl)-AMC) was used as substrate. The measurements were performed in an assay buffer (50 mM Hepes, 150 mM NaCl, 5 mM MgCl2, 1 mM TCEP and 0.2 mg/mL BSA, pH 7.4 adjusted with NaOH) at 37 °C. Inhibitors at different concentrations were incubated with 10 nM HDAC1, 3 nM HDAC2 or 3 nM HDAC3 (final concentration) for at least 5 min. The reaction was started with the addition of the fluorogenic substrate (20 µM final concentration) and incubated for 30 min for HDAC2 and HDAC3 and 90 min for HDAC1. The reaction was stopped with a solution of 1 mg/mL trypsin in 1 mM HCl and incubated for 1 h at 37 °C. The fluorescence intensity was recorded with an Envision 2104 Multilabel Plate Reader (PerkinElmer, Waltham, MA) with an excitation wavelength of 380 ± 8 nm and an emission wavelength of 430 ± 8 nm. The received fluorescence intensities were normalized with uninhibited reaction as 100% and the reaction without enzyme as 0%. A nonlinear regression analysis was done to determine the IC50 value.

Test [2] addresses T2, human HDAC2 (Homo sapiens, UniProt Q92769). As to the kind of experiment: HDAC2 inhibition, fluorogenic peptide substrate Ac-RHKK(Acetyl)-AMC. The test is classed as biochemical. To be noted: test set. Here is the method:
as §1, §2

In test [3] the target is T3, human HDAC3 (Homo sapiens, UniProt O15379). Briefly: HDAC3 inhibition, fluorogenic peptide substrate Ac-RHKK(Acetyl)-AMC. It counts as biochemical. To be noted: test set. Here is the method:
as §1, §2

Test [4] concerns the target T1, human HDAC1. As to conditions: training set, from in vitro IC50; cited from earlier work.
For test [5], the target named is T2, human HDAC2. To be noted: training set, from in vitro IC50; cited from earlier work.
Test [6] has as its target T3, human HDAC3. To be noted: training set, from in vitro IC50; cited from earlier work.

T3 sequence (O15379 whole entry): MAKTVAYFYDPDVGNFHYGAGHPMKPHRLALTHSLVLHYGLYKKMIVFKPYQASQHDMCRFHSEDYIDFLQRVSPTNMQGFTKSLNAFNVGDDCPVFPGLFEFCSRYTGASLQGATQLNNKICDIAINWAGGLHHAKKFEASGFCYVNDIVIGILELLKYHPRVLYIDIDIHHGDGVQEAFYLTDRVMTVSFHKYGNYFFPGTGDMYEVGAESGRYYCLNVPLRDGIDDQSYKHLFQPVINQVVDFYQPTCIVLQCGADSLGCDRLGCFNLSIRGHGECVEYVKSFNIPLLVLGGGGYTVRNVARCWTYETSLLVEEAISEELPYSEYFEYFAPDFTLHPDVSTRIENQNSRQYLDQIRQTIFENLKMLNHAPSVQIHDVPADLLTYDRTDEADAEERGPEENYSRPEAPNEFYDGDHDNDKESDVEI
T3 sequence (O75376 395-489 partner limits assumed): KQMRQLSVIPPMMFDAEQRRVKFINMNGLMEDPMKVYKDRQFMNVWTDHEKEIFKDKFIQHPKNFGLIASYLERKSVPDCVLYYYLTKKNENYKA
T2 sequence (Q92769 whole entry): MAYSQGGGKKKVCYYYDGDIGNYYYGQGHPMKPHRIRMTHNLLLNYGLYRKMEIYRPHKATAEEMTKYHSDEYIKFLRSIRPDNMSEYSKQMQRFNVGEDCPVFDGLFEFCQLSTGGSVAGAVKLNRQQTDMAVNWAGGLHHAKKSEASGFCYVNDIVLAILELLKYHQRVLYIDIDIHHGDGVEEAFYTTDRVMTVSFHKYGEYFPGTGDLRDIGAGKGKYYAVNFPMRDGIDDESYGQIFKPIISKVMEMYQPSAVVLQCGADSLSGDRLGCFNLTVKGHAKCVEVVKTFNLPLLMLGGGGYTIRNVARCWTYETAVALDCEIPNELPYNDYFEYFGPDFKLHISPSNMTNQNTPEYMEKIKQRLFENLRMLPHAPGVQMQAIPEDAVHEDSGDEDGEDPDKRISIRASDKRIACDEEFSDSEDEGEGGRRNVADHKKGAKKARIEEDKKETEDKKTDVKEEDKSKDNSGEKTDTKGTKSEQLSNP
T1 sequence (Q13547 whole entry): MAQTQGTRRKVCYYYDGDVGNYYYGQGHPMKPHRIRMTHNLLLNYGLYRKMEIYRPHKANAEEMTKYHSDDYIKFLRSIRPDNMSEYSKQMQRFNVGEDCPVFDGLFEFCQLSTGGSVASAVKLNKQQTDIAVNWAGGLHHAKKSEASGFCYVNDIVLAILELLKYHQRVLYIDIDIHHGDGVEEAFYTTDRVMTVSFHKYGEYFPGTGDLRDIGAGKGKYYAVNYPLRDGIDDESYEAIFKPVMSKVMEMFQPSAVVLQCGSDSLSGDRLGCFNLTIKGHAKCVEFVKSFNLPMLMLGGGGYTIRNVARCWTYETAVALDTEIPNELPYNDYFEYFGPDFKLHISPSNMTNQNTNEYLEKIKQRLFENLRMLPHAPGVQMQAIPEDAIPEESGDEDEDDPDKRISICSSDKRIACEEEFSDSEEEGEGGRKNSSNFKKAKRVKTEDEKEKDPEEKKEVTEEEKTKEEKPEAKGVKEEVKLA

For the compound `CC(=O)N1CCN(c2cnc(C(=O)Nc3ccccc3N)cn2)CC1` [30d], the “Experimental HDAC1 pIC50” value on human HDAC1 [1] is 5.72. Moreover, the IC50 was 1900 ± 100 nM at human HDAC1 [1] (read-out: HDAC1 IC50) and 24000 ± 2000 nM against human HDAC2 [2]. Further, the “Experimental HDAC2 pIC50” value at human HDAC2 [2] was determined as 4.62. The HDAC3 % inhibition on human HDAC3 [3] (@1 µM) amounted to 15%; at human HDAC3 [3] (@10 µM) it was 72%.
Take `Nc1ccccc1NC(=O)c1cnc(N2CCN(CCc3ccccc3)CC2)cn1` [19a]: at human HDAC1 [4], the HDAC1-pIC50 was 6.29. For the same compound, on human HDAC2 [5], the HDAC2-pIC50 is given as 6.10. Further, the HDAC3-pIC50 at human HDAC3 [6] is 5.95.
In the case of `Cn1cc(CN2CCN(c3cnc(C(=O)Nc4ccccc4N)cn3)CC2)c2ccccc21` [19k], the HDAC1-pIC50 on human HDAC1 [4] was 6.85. The HDAC2-pIC50 on human HDAC2 [5] is listed as 6.25. In addition, the HDAC3-pIC50 at human HDAC3 [6] is 6.23.
For the compound `Cn1cc(CCN2CCN(c3cnc(C(=O)Nc4cc(-c5cccs5)ccc4N)cn3)CC2)c2ccccc21` [21a], the HDAC1-pIC50 on human HDAC1 [4] was 6.59. Besides, the HDAC2-pIC50 on human HDAC2 [5] is recorded as 5.61.
On to `Nc1ccc(-c2ccc(F)cc2)cc1NC(=O)c1cnc(N2CCNCC2)cn1` [29c], for which the HDAC1-pIC50 on human HDAC1 [4] is given as 6.80. Also, the HDAC2-pIC50 at human HDAC2 [5] is 6.47. Further, the HDAC3-pIC50 on human HDAC3 [6] is given as 5.17.
`CC(=O)N1CCN(c2cnc(C(=O)Nc3cc(-c4cccs4)ccc3N)cn2)CC1` [30c]: the “Experimental HDAC1 pIC50” value at human HDAC1 [1] was 7.72. Further, the values for the IC50 at human HDAC1 [1] (read-out: HDAC1 IC50) and against human HDAC2 [2] were 19 ± 1 nM and 1100 ± 100 nM, respectively. Further, the “Experimental HDAC2 pIC50” value on human HDAC2 [2] is given as 5.96. In addition, the HDAC3 % inhibition amounted to 4% at human HDAC3 [3] (@1 µM) and 30% on human HDAC3 [3] (@10 µM).
As for `Nc1ccccc1NC(=O)c1cnc(N2CCN(Cc3ccccn3)CC2)cn1` [19d], the HDAC1-pIC50 on human HDAC1 [4] is reported as 6.28. The HDAC2-pIC50 on human HDAC2 [5] was 5.84. Moreover, the HDAC3-pIC50 at human HDAC3 [6] is 5.97.
As for `Nc1ccccc1NC(=O)c1cnc(N2CCN(Cc3csc4ccccc34)CC2)cn1` [19e], at human HDAC1 [4], the HDAC1-pIC50 is given as 6.68. On human HDAC2 [5], the HDAC2-pIC50 is given as 6.15. The HDAC3-pIC50 on human HDAC3 [6] is recorded as 6.08.
`Nc1ccc(-c2ccc(F)cc2)cc1NC(=O)c1cnc(N2CCN(CCc3c[nH]c4ccccc34)CC2)cn1` [21b]: the HDAC1-pIC50 at human HDAC1 [4] is on record as 6.15. Moreover, the HDAC2-pIC50 at human HDAC2 [5] is recorded as 6.11.
Take `CN1CCN(c2cnc(C(=O)Nc3cc(-c4ccccc4F)ccc3N)cn2)CC1` [29d]: at human HDAC1 [4], the HDAC1-pIC50 is reported as 6.74. Further, the HDAC2-pIC50 on human HDAC2 [5] is 6.59. Besides, the HDAC3-pIC50 on human HDAC3 [6] is recorded as 4.92.
For the compound `Cn1cc(CN2CCN(c3ncc(C(=O)Nc4ccccc4N)cn3)CC2)c2ccccc21` [19j], the HDAC1-pIC50 at human HDAC1 [4] was 6.35. Besides, the HDAC2-pIC50 at human HDAC2 [5] is 6.03. Besides, the HDAC3-pIC50 at human HDAC3 [6] is 5.76.
Take `Nc1cc(F)ccc1NC(=O)c1ccc(C(=O)NCc2ccccc2)cc1` [31a]: the inhibition at 1 µM against human HDAC1 [1] was found to be 4%; against human HDAC2 [2], 10%; against human HDAC3 [3] (@1 µM), 21%. The inhibition at 10 µM at human HDAC1 [1] was determined as 31%; on human HDAC2 [2] it was 37%; on human HDAC3 [3] (@10 µM), 65%.
`Nc1cc(F)c(F)cc1NC(=O)c1cnc(N2CCN(CCc3c[nH]c4ccccc34)CC2)cn1` [19h]: on human HDAC1 [4], the HDAC1-pIC50 is 6.09. Also, the HDAC2-pIC50 on human HDAC2 [5] is on record as 6.13. Moreover, the HDAC3-pIC50 on human HDAC3 [6] is on record as 6.24.
On to `Nc1cc(Cl)ccc1NC(=O)c1cnc(N2CCNCC2)cn1` [25a], for which, on human HDAC3 [6], the HDAC3-pIC50 was 5.06.
Turning to `COc1ccc(NC(=O)c2cnc(N3CCNCC3)cn2)c(N)c1` [27c], the HDAC1-pIC50 at human HDAC1 [4] is given as 4.7. Further, the HDAC2-pIC50 on human HDAC2 [5] is given as 4.85. Further, at human HDAC3 [6], the HDAC3-pIC50 was 4.85.
For `Cn1cc(CCN2CCN(c3cnc(C(=O)Nc4cc(F)ccc4N)cn3)CC2)c2ccccc21` [23c], on human HDAC1 [4], the HDAC1-pIC50 is on record as 6.48. Also, the HDAC2-pIC50 at human HDAC2 [5] is reported as 5.86. Also, the HDAC3-pIC50 at human HDAC3 [6] is recorded as 6.23.
Consider `CN1CCN(c2cnc(C(=O)Nc3cc(-c4ccsc4)ccc3N)cn2)CC1` [29a], for which the HDAC1-pIC50 on human HDAC1 [4] is recorded as 6.96. Further, on human HDAC2 [5], the HDAC2-pIC50 is given as 6.74. Moreover, on human HDAC3 [6], the HDAC3-pIC50 is recorded as 5.36.
As for `Nc1ccc(-c2cccs2)cc1NC(=O)c1cnc(N2CCNCC2)cn1` [29b], the HDAC1-pIC50 at human HDAC1 [4] is 7.15. For the same compound, the HDAC2-pIC50 at human HDAC2 [5] is listed as 6.59. The HDAC3-pIC50 on human HDAC3 [6] was 5.21.
As to `Cn1cc(CN2CCN(c3cnc(C(=O)Nc4cc(F)c(F)cc4N)cn3)CC2)c2ccccc21` [19l], the HDAC1-pIC50 on human HDAC1 [4] is listed as 6.54. In addition, the HDAC2-pIC50 at human HDAC2 [5] is listed as 6.25. Moreover, on human HDAC3 [6], the HDAC3-pIC50 is listed as 6.09.
Regarding `Nc1cc(F)c(F)cc1NC(=O)c1cnc(N2CCNCC2)cn1` [25b], on human HDAC1 [4], the HDAC1-pIC50 was 5.37. Besides, the HDAC2-pIC50 at human HDAC2 [5] is given as 5.38. In addition, the HDAC3-pIC50 on human HDAC3 [6] was 5.80.
With `Nc1ccc(-c2ccccc2F)cc1NC(=O)c1cnc(N2CCN(CCc3c[nH]c4ccccc34)CC2)cn1` [21c], the HDAC1-pIC50 on human HDAC1 [4] is 6.12. Further, on human HDAC2 [5], the HDAC2-pIC50 is recorded as 6.12. In addition, the HDAC3-pIC50 at human HDAC3 [6] is reported as 4.82.
For `Nc1cc(F)ccc1NC(=O)c1ccc(C(=O)NCc2cccnc2)cc1` [31c], the inhibition at 1 µM on human HDAC1 [1] worked out at 6%; against human HDAC2 [2], 14%; against human HDAC3 [3] (@1 µM) it was 25%. Further, the values for the inhibition at 10 µM against human HDAC1 [1], against human HDAC2 [2] and on human HDAC3 [3] (@10 µM) were 36%, 51% and 66%, respectively.
Regarding `CN1CCN(c2ncc(C(=O)Nc3cc(-c4cccs4)ccc3N)cn2)CC1` [30a], the IC50 at human HDAC1 [1] (read-out: Experimental HDAC1 pIC50 (converted)) was 324 nM; on human HDAC2 [2], 610 ± 20 nM. The compound also came in with an inhibition at 1 µM on human HDAC3 [3] (@1 µM) of 8%. On human HDAC3 [3] (@10 µM), this compound showed an inhibition at 10 µM of 38%.
With `Nc1cc(Cl)ccc1NC(=O)c1cnc(N2CCN(CCc3c[nH]c4ccccc34)CC2)cn1` [19i], the HDAC1-pIC50 at human HDAC1 [4] is reported as 5.52. In addition, the HDAC2-pIC50 at human HDAC2 [5] was 5.57. Besides, the HDAC3-pIC50 on human HDAC3 [6] is 5.72.
Consider `Nc1cc(F)ccc1NC(=O)c1ccc(C(=O)NCc2ccncc2)cc1` [31b], for which the inhibition at 1 µM on human HDAC1 [1] was 0%; at human HDAC2 [2] it was 13%; against human HDAC3 [3] (@1 µM), 19%. Moreover, the inhibition at 10 µM on human HDAC1 [1] came out at 27%; at human HDAC2 [2], 30%; against human HDAC3 [3] (@10 µM), 59%.
For the compound `Nc1cc(F)ccc1NC(=O)c1cnc(N2CCNCC2)cn1` [23a], the HDAC1-pIC50 on human HDAC1 [4] is reported as 5.48. Further, the HDAC2-pIC50 at human HDAC2 [5] is recorded as 5.66. Further, the HDAC3-pIC50 at human HDAC3 [6] is listed as 6.40.
Turning to `Cn1cc(CN2CCN(c3cnc(C(=O)Nc4cc(F)ccc4N)cn3)CC2)c2ccccc21` [23b], at human HDAC1 [4], the HDAC1-pIC50 was 6.57. For the same compound, the HDAC2-pIC50 at human HDAC2 [5] is 6.30. In addition, the HDAC3-pIC50 at human HDAC3 [6] is given as 6.30.
`Cn1cc(CCN2CCN(c3cnc(C(=O)Nc4ccc(F)cc4N)cn3)CC2)c2ccccc21` [19m]: on human HDAC1 [4], the HDAC1-pIC50 was 6.40. For the same compound, at human HDAC2 [5], the HDAC2-pIC50 is 5.83. The HDAC3-pIC50 on human HDAC3 [6] was 6.40.
`Nc1ccccc1NC(=O)c1cnc(N2CCN(CCc3c[nH]c4ccccc34)CC2)cn1` [19g]: at human HDAC1 [4], the HDAC1-pIC50 is listed as 6.51. For the same compound, the HDAC2-pIC50 at human HDAC2 [5] is listed as 6.02. Also, the HDAC3-pIC50 at human HDAC3 [6] is 6.31.
For `CN1CCN(c2cnc(C(=O)Nc3cc(-c4cccs4)ccc3N)cn2)CC1` [30b], the “Experimental HDAC1 pIC50” value at human HDAC1 [1] was determined as 7.39. For the same compound, the IC50 at human HDAC1 [1] (read-out: HDAC1 IC50) was found to be 40 ± 6 nM; on human HDAC2 [2], 790 ± 20 nM. Besides, the “Experimental HDAC2 pIC50” value at human HDAC2 [2] is on record as 6.10. In addition, the results for the HDAC3 % inhibition at human HDAC3 [3] (@1 µM) and on human HDAC3 [3] (@10 µM) were 6% and 35%, respectively.

What is called inhibition is how much of the control response was suppressed. Lower therefore signals a weak effect.
